Experimental data as given in patent publication US10717799B2, “Copolymers as excipients for effective solubilization of poorly water-soluble substances from solid mixtures” (Dow Global Technologies LLC, priority 2015, dated 2020).
Converted amounts (≈) assume the structure as drawn.

Assay: not given
Conditions: pH 6.5

Molecule	c(30 min) concentration of solubilized Phenytoin	c(90 min) concentration of solubilized Phenytoin	c(180 min) concentration of solubilized Phenytoin
poly-[(N,N-diethylacrylamide)-co-(N,N-dimethylacrylamide)] [Example 5-1]	172 mg/L	197 mg/L	137 mg/L
poly-[(N,N-diethylacrylamide)-co-(N,N-dimethylacrylamide)] [Example 5-2]	319 mg/L	322 mg/L	223 mg/L
poly-[(N,N-diethylacrylamide)-co-(N,N-dimethylacrylamide)] [Example 5-3]	595 mg/L	413 mg/L	257 mg/L
poly-[(N,N-diethylacrylamide)-co-(N,N-dimethylacrylamide)] [Example 5-4]	646 mg/L	667 mg/L	591 mg/L
poly-[(N,N-diethylacrylamide)-co-(N,N-dimethylacrylamide)] [Example 5-5]	348 mg/L	359 mg/L	295 mg/L
poly-[(N-isopropylacrylamide)-co-(N,N-dimethylacrylamide)] [Example 1-1]	1,208 mg/L	1,024 mg/L	1,104 mg/L
poly-[(N-isopropylacrylamide)-co-(N,N-dimethylacrylamide)] [Example 1-3]	992 mg/L	794 mg/L	876 mg/L
poly-[(N-isopropylacrylamide)-co-(N,N-dimethylacrylamide)] [Example 1-4]	1,066 mg/L	758 mg/L	936 mg/L
poly-[(N-isopropylacrylamide)-co-(N,N-dimethylacrylamide)] [Example 1-5]	942 mg/L	759 mg/L	823 mg/L
poly-[(N-isopropylacrylamide)-co-(N,N-dimethylacrylamide)] [Example 1-6]	962 mg/L	649 mg/L	875 mg/L
poly-[(N-isopropylacrylamide)-co-(N,N-dimethylacrylamide)] [Example 1-7]	156 mg/L	137 mg/L	145 mg/L
poly-[(N-isopropylacrylamide)-co-(N,N-dimethylacrylamide)] [Example 1-8]	183 mg/L	173 mg/L	184 mg/L
poly-[(N-isopropylacrylamide)-co-(N,N-dimethylacrylamide)] [Example 1-9]	301 mg/L	266 mg/L	265 mg/L
poly-[(N-isopropylacrylamide)-co-(N,N-dimethylacrylamide)] [Example 1-10]	392 mg/L	281 mg/L	255 mg/L
poly-[(N-isopropylacrylamide)-co-(N,N-dimethylacrylamide)] [Example 1-11]	895 mg/L	343 mg/L	300 mg/L
poly-[(N-isopropylacrylamide)-co-(N,N-dimethylacrylamide)] [Example 1-15]	479 mg/L	455 mg/L	409 mg/L
poly-[(N-isopropylacrylamide)-co-(N,N-dimethylacrylamide)] [Example 1-16]	413 mg/L	379 mg/L	407 mg/L

Assay: not given
Conditions: pH 6.5
Remark: another data set of the same source

Molecule	c(30 min) concentration of solubilized Nilutamide	c(90 min) concentration of solubilized Nilutamide	c(180 min) concentration of solubilized Nilutamide
poly-[(N-isopropylacrylamide)-co-(N,N-dimethylacrylamide)] [Example 1-15]	828 mg/L	833 mg/L	848 mg/L

Assay: Supersaturation (maintenance) test with Nilutamide
Conditions: phosphate buffer saline with 0.5 wt. % FaSSIF, 37 °C, pH 6.5, aqueous with cosolvent or surfactant or cyclodextrin, kinetic from dmso stock

Molecule	solubility at 30 min	solubility at 90 min	solubility at 180 min
CC1(C)NC(=O)N(c2ccc([N+](=O)[O-])c(C(F)(F)F)c2)C1=O [Nilutamide]	473 µg/mL (≈ 1490 µM)	364 µg/mL (≈ 1150 µM)	308 µg/mL (≈ 971 µM)

Assay: physchem
Conditions: 37 °C, pH 6.5, fassif, thermodynamic from solid

Molecule	solubility at 4 min
O=C1NC(=O)C(c2ccccc2)(c2ccccc2)N1 [Phenytoin]	~50 µg/mL (≈ 198 µM)

Assay: physchem
Conditions: 37 °C, pH 6.5, aqueous with cosolvent or surfactant or cyclodextrin, kinetic from dmso stock

Molecule	solubility at 30 min	solubility at 90 min	solubility at 180 min
O=C1NC(=O)C(c2ccccc2)(c2ccccc2)N1 [Phenytoin]	75 µg/mL (≈ 297 µM)	70 µg/mL (≈ 277 µM)	73 µg/mL (≈ 289 µM)

Assay: not given
Conditions: pH 6.5
Remark: another data set of the same source

Molecule	solubilized drug concentration after continuous decrease
poly-[(N-isopropylacrylamide)-co-(N,N-dimethylacrylamide)] [Example 1-17]	below 200 mg/L
